pKi: −log10 of the molar value.
Molecular target: T1, N-terminally GST-tagged DLK (catalytic domain amino acid 1-520) (Homo sapiens, UniProt Q12852)
T1 construct: N-terminally GST-tagged DLK (catalytic domain amino acid 1-520); purchased Carna Bioscience
T1 sequence (Q12852 1-520): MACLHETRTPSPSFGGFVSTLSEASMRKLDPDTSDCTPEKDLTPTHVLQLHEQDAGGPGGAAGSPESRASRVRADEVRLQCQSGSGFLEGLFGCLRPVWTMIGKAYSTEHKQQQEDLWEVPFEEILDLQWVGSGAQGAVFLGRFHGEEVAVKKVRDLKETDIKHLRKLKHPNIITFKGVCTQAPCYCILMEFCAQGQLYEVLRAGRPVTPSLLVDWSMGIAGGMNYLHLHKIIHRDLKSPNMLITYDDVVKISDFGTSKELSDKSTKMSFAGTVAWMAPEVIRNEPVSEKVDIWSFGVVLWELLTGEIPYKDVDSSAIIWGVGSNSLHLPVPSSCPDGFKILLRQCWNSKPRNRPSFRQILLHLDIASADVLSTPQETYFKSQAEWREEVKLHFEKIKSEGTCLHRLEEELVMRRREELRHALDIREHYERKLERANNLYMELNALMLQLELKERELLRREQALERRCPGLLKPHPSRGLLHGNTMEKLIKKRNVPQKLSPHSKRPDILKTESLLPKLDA
Assay: DLK TR-FRET inhibition assay
Assay type: biochemical
Details: 5 nM GST-DLK, 40 nM HIS-MKK4 K131M substrate, 30 μM ATP, 60 minutes at ambient temperature
Method in brief: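 5 nM GST-DLK (aa 1-520), 40 nM HIS-MKK4 K131M and 30 μM ATP reacted 60 min at ambient temperature in HEPES pH 7.5 buffer with 10 mM MgCl2, compound 1:3 serially diluted from 20 uM. TR-FRET detection of phospho-MKK4 used Eu-cryptate anti-phospho-MKK4 plus D2 anti-HIS, read after 3 h (665/615 nm).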

Compound	pKi
COCC1(F)C[C@@H]2[C@H](C1)[C@H]2c1cc(-c2cnc(N)c(C(F)(F)F)c2)nn1C(C)C (stereo partly drawn) [compound 166, 5-(5-((1R,5S,6r)-3-fluoro-3-(methoxymethyl)bicyclo[3.1.0]hexan-6-yl)-1-isopropyl-1H-pyrazol-3-yl)-3-(trifluoromethyl)pyridin-2-amine]	8.17
CC(C)n1nc(-c2cnc(N)c(C(F)(F)F)c2)cc1[C@H]1[C@@H]2C[C@@H](N3C[C@@H]4C[C@H]3CO4)C[C@@H]21 [compound 167, 5-(5-((1R,3s,5S,6S)-3-((1S,4S)-2-oxa-5-azabicyclo[2.2.1]heptan-5-yl)bicyclo[3.1.0]hexan-6-yl)-1-isopropyl-1H-pyrazol-3-yl)-3-(trifluoromethyl)pyridin-2-amine]	8.85
CC(C)n1nc(-c2cnc(N)c(OC(F)F)c2)cc1[C@H]1[C@@H]2C[C@H](OCC(C)(C)O)C[C@@H]21 [compound 168, 1-(((1R,3r,5S,6r)-6-(3-(6-ammo-5-(difluoromethoxy)pyridin-3-yl)-1-isopropyl-1H-pyrazol-5-yl)bicyclo[3.1.0]hexan-3-yl)oxy)-2-methylpropan-2-ol]	8.57
CC(C)n1nc(-c2cnc(N)c(OC(F)F)c2)cc1[C@H]1[C@@H]2CC3(COC3)C[C@@H]21 [compound 170, 3-(difluoromethoxy)-5-(1-isopropyl-5-((1R,5S,6r)-spiro[bicyclo [3.1.0]hexane-3,3′-oxetan]-6-yl)-1H-pyrazol-3-yl)pyridin-2-amine]	8.35
CC(C)N1CCN([C@@H]2C[C@@H]3[C@H](C2)[C@H]3c2cc(-c3cnc(N)c(OC(F)F)c3)nn2C(C)C)CC1 [compound 176, 3-(difluoromethoxy)-5-(1-isopropyl-5-((1R,3s,5S,6r)-3-(4-isopropyl-piperazin-1-yl)bicyclo[3.1.0]hexan-6-yl)-1H-pyrazol-3-yl) pyridin-2-amine]	8.74
CC(C)N1CCN([C@H]2C[C@@H]3[C@H](C2)[C@H]3c2cc(-c3cnc(N)c(OC(F)F)c3)nn2C(C)C)CC1 [compound 177, 3-(difluoromethoxy)-5-(1-isopropyl-5-((1R,3r,5S,6r)-3-(4-isopropyl-piperazin-1-yl)bicyclo[3.1.0]hexan-6-yl)-1H-pyrazol-3-yl) pyridin-2-amine]	8.96
CC(C)n1nc(-c2cnc(N)c(C(F)(F)F)c2)cc1[C@H]1[C@@H]2C[C@H](N3CCN(C)C4(COC4)C3)C[C@@H]21 [compound 179, 5-(1-isopropyl-5-((1R,3r,5S,6r)-3-(5-methyl-2-oxa-5,8-diazaspiro [3.5]nonan-8-yl)bicyclo[3.1.0]hexan-6-yl)-1H-pyrazol-3-yl)-3-(trifluoromethyl)pyridin-2-amine]	8.37
CC(C)n1nc(-c2cnc(N)c(C(F)(F)F)c2)cc1[C@H]1[C@@H]2C[C@@H](N3CCN(C)C4(COC4)C3)C[C@@H]21 [compound 180, 5-(1-isopropyl-5-((1R,3s,5S,6r)-3-(5-methyl-2-oxa-5,8-diazaspiro [3.5]nonan-8-yl)bicyclo[3.1.0]hexan-6-yl)-1H-pyrazol-3-yl)-3-(trifluoromethyl)pyridin-2-amine]	8.24
CC(C)n1nc(-c2cnc(N)c(OC(F)F)c2)cc1[C@H]1[C@@H]2C[C@H](N3CCOCC(F)(F)C3)C[C@@H]21 [compound 181, 5-(5-((1R,3r,5S,6r)-3-(6,6-difluoro-1,4-oxazepan-4-yl)bicyclo [3.1.0]hexan-6-yl)-1-isopropyl-1H-pyrazol-3-yl)-3-(difluoromethoxy) pyridin-2-amine]	8.62
CC(=O)N(C)[C@H]1C[C@@H]2[C@H](C1)[C@H]2c1cc(-c2cnc(N)c(C(F)(F)F)c2)nn1C(C)C [compound 182, N-((1R,5S,6r)-6-(3-(6-amino-5-(trifluoromethyl)pyridin-3-yl)-1-isopropyl-1H-pyrazol-5-yl)bicyclo [3.1.0]hexan-3-yl)-N-methylacetamide]	8.52
CC(C)n1nc(-c2cnc(N)c(OC(F)F)c2)cc1[C@H]1[C@@H]2C[C@@H](N3CCOCC(F)(F)C3)C[C@@H]21 [compound 183, 5-(5-((1R,3s,5S,6r)-3-(6,6-difluoro-1,4-oxazepan-4-yl)bicyclo [3.1.0]hexan-6-yl)-1-isopropyl-1H-pyrazol-3-yl)-3-(difluoro-methoxy)pyridin-2-amine]	8.35
CO[C@@H]1CCN([C@H]2C[C@@H]3[C@H](C2)[C@H]3c2cc(-c3cnc(N)c(C(F)(F)F)c3)nn2C(C)C)C1 [compound 185, 5-(1-isopropyl-5-((1R,3r,5S,6R)-3-((R)-3-methoxypyrrolidin-1-yl)bicyclo[3.1.0]hexan-6-yl)-1H-pyrazol-3-yl)-3-(trifluoromethyl) pyridin-2-amine]	8.80
CO[C@@H]1CCN([C@H]2C[C@@H]3[C@H](C2)[C@H]3c2cc(-c3cnc(N)c(OC(F)F)c3)nn2C(C)C)C1 [compound 186, 3-(difluoromethoxy)-5-(1-isopropyl-5-((1R,3r,5S,6R)-3-((R)-3-methoxypyrrolidin-1-yl)bicyclo [3.1.0]hexan-6-yl)-1H-pyrazol-3-yl)pyridin-2-amine]	8.80
CO[C@H]1C[C@@H]2[C@H](C1)[C@H]2c1cc(-c2cnc(N)c(OC(F)F)c2)nn1C(C)C [compound 187, 3-(difluoromethoxy)-5-(1-isopropyl-5-((1R,3r,5S,6r)-3-methoxy-bicyclo[3.1.0]hexan-6-yl)-1H-pyrazol-3-yl)pyridin-2-amine]	8.66
CC(C)n1nc(-c2cnc(N)c(C(F)(F)F)c2)cc1[C@H]1[C@@H]2C[C@H](N(C)C)C[C@@H]21 [compound 188, 5-(5-((lR,3r,5S,6r)-3-(dimethylamino)bicyclo[3.1,0]hexan-6-yl)-1-isopropyl-1 H-pyrazol-3-yl)-3-(trifluoromethyl)pyridin-2-am inc]	8.55
CC(C)n1nc(-c2cnc(N)c(C(F)(F)F)c2)cc1[C@H]1[C@@H]2C[C@@H](N(C)C)C[C@@H]21 [compound 189, 5-(5-((1R,3s,5S,6r)-3-(dimethylamino)bicyclo[3.1.0]hexan-6-yl)-1-isopropyl-1H-pyrazol-3-yl)-3-(trifluoromethyl)pyridin-2-amine]	8.54
CO[C@@H]1CCN([C@@H]2C[C@@H]3[C@H](C2)[C@H]3c2cc(-c3cnc(N)c(C(F)(F)F)c3)nn2C(C)C)C1 [compound 192, 5-(1-isopropyl-5-((1R,3s,5S,6R)-3-((R)-3-methoxypyrrolidin-1-yl)bicyclo[3.1.0]hexan-6-yl)-1H-pyrazol-3-yl)-3-(trifluoromethyl) pyridin-2-amine]	8.59
CO[C@@H]1CCN([C@@H]2C[C@@H]3[C@H](C2)[C@H]3c2cc(-c3cnc(N)c(OC(F)(F)F)c3)nn2C(C)C)C1 [compound 193, 5-(1-isopropyl-5-((1R,3s,5S,6R)-3-((R)-3-methoxypyrrolidin-1-yl)bicyclo[3.1.0]hexan-6-yl)-1H-pyrazol-3-yl)-3-(trifluoromethoxy) pyridin-2-amine]	8.85
CO[C@@H]1CCN([C@@H]2C[C@@H]3[C@H](C2)[C@H]3c2cc(-c3cnc(N)c(OC(F)F)c3)nn2C(C)C)C1 [compound 194, 3-(difluoromethoxy)-5-(1-isopropyl-5-((1R,3s,5S,6R)-3-((R)-3-methoxypyrrolidin-1-yl)bicyclo [3.1.0]hcxan-6-yl)-1 H-pyrazol-3-yl)pyridin-2-amine]	8.70
CO[C@@H]1C[C@@H]2[C@H](C1)[C@H]2c1cc(-c2cnc(N)c(OC(F)F)c2)nn1C(C)C [compound 195, 3-(difluoromethoxy)-5-(1-isopropyl-5-((1R,3s,5S,6r)-3-methoxy-bicyclo[3.1.0]hexan-6-yl)-1H-pyrazol-3-yl)pyridin-2-amine]	8.19
CC(C)n1nc(-c2cnc(N)c(OC(F)F)c2)cc1[C@H]1[C@@H]2C[C@H](N3CCN(C)CC3)C[C@@H]21 [compound 198, 3-(difluoromethoxy)-5-(1-isopropyl-5-((1R,3r,5S,6r)-3-(4-methyl-piperazin-1-yl)bicyclo[3.1.0]hexan-6-yl)-1H-pyrazol-3-yl) pyridin-2-amine]	8.68
CC(C)n1nc(-c2cnc(N)c(OC(F)F)c2)cc1[C@H]1[C@@H]2C[C@@H](N3CCN(C)CC3)C[C@@H]21 [compound 199, 3-(difluoromethoxy)-5-(1-isopropyl-5-((1R,3s,5S,6r)-3-(4-methyl-piperazin-1-yl)bicyclo[3.1.0]hexan-6-yl)-1H-pyrazol-3-yl) pyridin-2-amine]	8.74
CC(C)n1nc(-c2cnc(N)c(C(F)(F)F)c2)cc1[C@H]1[C@@H]2C[C@H](N3C[C@@H]4C[C@H]3CN4C)C[C@@H]21 [compound 200, 5-(1-isopropyl-5-((1R,3r,5S,6S)-3-((1S,4S)-5-methyl-2,5-diazabicyclo [2.2.1]heptan-2-yl)bicyclo [3.1.0]hexan-6-yl)-1H-pyrazol-3-yl)-3-(trifluoromethyl)pyridin-2-amine]	8.70
